The values that follow come from patent US7749984B2, “Computer-based model for identification and characterization of non-competitive inhibitors of nicotinic acetylcholine receptors and related ligand-gated ion channel receptors” (priority 2003, dated 2010).

Structures are written as SMILES. Read-outs that look alike come from different tables or passages of the source.

Experiment [1] concerns the target T1, α3β4 nAChR (Rattus norvegicus, UniProt P04757+P12392). Briefly: biochemical. Also on record: host or cells: HEK293 (KXα3β4R2). The conditions noted are these: for k′(NLC) retention capacity factor: 10 μM, 20 μl injected, ammonium acetate 10 mM pH 7.4/methanol 85:15. The experiment is classed as binding.
For experiment [2], the target named is T1, α3β4 nAChR. The experiment in a line: Nicotine-stimulated 86Rb+ efflux assay, KXα3β4R2 cell line. Type of experiment: cell-based. Also on record: host or cells: HEK293 (KXα3β4R2). As to the method:
After the prediction has been done based on clustering the actual values of IC50 were determined using the nicotine-stimulated ^86Rb^+ efflux assay on cell line KXα3β4R2.

Experiment [3] relates to nAChR, SH-SY5Y cells. Briefly: Rb+ efflux assay, SH-SY5Y cells. The experiment is classed as cell-based, human. The conditions noted are these: cell line SH-SY5Y.
Where [4] appears, read: IC50, nicotine-stimulated 86Rb+ efflux, α3β4 nAChR.
Setting [5] is: IC50 of Rb+ efflux, cell line KXα3β4R2.
The mark [6] stands for this setting: α3β4 nAChR, NLC, read-out: koff dissociation constant rate.
Setting [7] is: α3β4 nAChR, NLC, read-out: kon association constant rate.
[8] abbreviates: α3β4 nAChR, NLC, read-out: log K chromatographic equilibrium constant (converted).
[9] abbreviates: nicotine-stimulated 86Rb+ efflux, cell line KXα3β4R2, read-out: IC50.

T1 sequence (P04757 26-499): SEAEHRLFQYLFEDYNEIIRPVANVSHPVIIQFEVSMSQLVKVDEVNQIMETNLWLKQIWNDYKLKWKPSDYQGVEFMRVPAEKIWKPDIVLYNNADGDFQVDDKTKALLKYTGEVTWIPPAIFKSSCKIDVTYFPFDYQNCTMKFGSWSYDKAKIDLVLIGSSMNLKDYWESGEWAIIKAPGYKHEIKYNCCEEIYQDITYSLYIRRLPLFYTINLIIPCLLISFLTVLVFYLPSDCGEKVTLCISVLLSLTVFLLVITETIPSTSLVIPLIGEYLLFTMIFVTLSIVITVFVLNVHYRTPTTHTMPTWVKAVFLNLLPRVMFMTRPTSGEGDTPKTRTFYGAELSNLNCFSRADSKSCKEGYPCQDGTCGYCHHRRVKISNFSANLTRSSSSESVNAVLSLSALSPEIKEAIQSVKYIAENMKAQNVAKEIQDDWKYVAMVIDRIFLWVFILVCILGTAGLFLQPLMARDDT
T1 sequence (P12392 21-495): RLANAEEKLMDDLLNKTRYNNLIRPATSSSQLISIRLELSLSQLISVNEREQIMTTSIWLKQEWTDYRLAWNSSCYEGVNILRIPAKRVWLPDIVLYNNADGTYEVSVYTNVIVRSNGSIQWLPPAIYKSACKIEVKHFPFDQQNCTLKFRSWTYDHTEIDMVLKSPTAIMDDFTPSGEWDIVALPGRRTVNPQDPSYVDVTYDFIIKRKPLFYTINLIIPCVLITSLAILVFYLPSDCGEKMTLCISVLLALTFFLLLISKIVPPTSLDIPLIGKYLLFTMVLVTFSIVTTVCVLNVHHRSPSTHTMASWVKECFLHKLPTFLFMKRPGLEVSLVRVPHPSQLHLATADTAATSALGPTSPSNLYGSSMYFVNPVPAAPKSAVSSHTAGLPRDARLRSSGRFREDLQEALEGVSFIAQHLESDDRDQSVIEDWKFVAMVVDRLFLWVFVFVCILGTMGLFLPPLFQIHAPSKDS

As a reminder, the IC50 is the concentration needed to halve the response being measured. Take `COc1ccc(CCNCCCC(C#N)(c2ccc(OC)c(OC)c2)C(C)C)cc1OC` (stereo not shown) [nor-verapamil]: the “enantioselectivity of binding towards nicotinic affinity column” value in experiment [1] (chromatographic experiments and NLC data) is recorded as “did not exhibit noticeable differences between enantiomers”. Besides, the “logk′” value in experiment [1] (α3β4 nAChR) was found to be 1.99. Also, the IC50 in experiment [2] (IC50, nicotine-stimulated 86Rb+ efflux, cell line KXα3β4R2) turned out to be 2600 nM; in experiment [2] (setting [4]), 2100 nM; in experiment [2] (setting [5]) it was 2600 nM.
The koff is the rate constant with which the complex falls apart. The term kon denotes the rate constant with which the complex forms. As for `CC(=O)Nc1ccccc1` [acetanilide], the koff in experiment [1] (setting [6]) was found to be 25.5 s⁻¹. Besides, the kon in experiment [1] (setting [7]) came to 8.2e+06 M⁻¹ s⁻¹. In addition, the Kd in experiment [1] (setting [8]) is 3090 nM. The “k′(NLC) retention capacity factor” value in experiment [1] (α3β4 nAChR) came to 5.95.
Consider `COc1ccc(C(=O)O)cc1OC` [dimethoxybenzoic ac., 3,4-dimethoxybenzoic acid], for which the koff in experiment [1] (setting [6]) stood at 18.2 s⁻¹. The kon in experiment [1] (setting [7]) was found to be 9.8e+06 M⁻¹ s⁻¹. The Kd in experiment [1] (setting [8]) is 1860 nM. For the same molecule, the “k′(NLC) retention capacity factor” value in experiment [1] (α3β4 nAChR) turned out to be 4.46.
Consider `CC(NC(C)(C)C)C(=O)c1cccc(Cl)c1` (stereo not shown) [bupropion], for which the koff in experiment [1] (setting [6]) turned out to be 5.14 s⁻¹. Besides, in experiment [1] (setting [7]), the kon came out at 2.87e+07 M⁻¹ s⁻¹. Moreover, in experiment [1] (setting [8]), the Kd is 178 nM. In addition, the “k′(NLC) retention capacity factor” value in experiment [1] (α3β4 nAChR) stood at 12.97. Also, inhibition in experiment [3] was half-maximal at 1400 nM (IC50).
As to `CN(C)CCN1C(=O)[C@H](O)[C@H](c2ccc(O)cc2)Sc2ccccc21` [Compound M4], the “logk′” value in experiment [1] (α3β4 nAChR) was 1.45. Further, in experiment [2] (setting [9]), the IC50 was 73200 nM.
`c1ccc(C2(N3CCCCC3)CCCCC2)cc1` [phenylcyclidine]: in experiment [1] (setting [6]), the koff stood at 2.69 s⁻¹. Further, in experiment [1] (setting [7]), the kon turned out to be 2.32e+07 M⁻¹ s⁻¹. In addition, the Kd in experiment [1] (setting [8]) was 115 nM. The “k′(NLC) retention capacity factor” value in experiment [1] (α3β4 nAChR) was found to be 24.06. For the same molecule, the IC50 was 5900 nM in experiment [3] and 7000 nM in experiment [2] (setting [5]).
As to `CC(=O)Nc1ccc(O)cc1` [acetaminophen], the dissociation rate constant (koff) in experiment [1] (setting [6]) was 17.2 s⁻¹. In addition, in experiment [1] (setting [7]), the kon came out at 8.4e+06 M⁻¹ s⁻¹. Also, in experiment [1] (setting [8]), the Kd is 2040 nM. Besides, the “k′(NLC) retention capacity factor” value in experiment [1] (α3β4 nAChR) came out at 5.30.
The like results for `COc1ccc(CC2c3cc(OC)c(OC)cc3CCN2C)cc1OC` (stereo not shown) [laudanosine] were, in that order, 2.18 s⁻¹, 2.5e+07 M⁻¹ s⁻¹, 87.1 nM and 22.87.
For `NC12CC3CC(CC(C3)C1)C2` [amantadine], the koff in experiment [1] (setting [6]) came to 6.73 s⁻¹. In addition, the kon in experiment [1] (setting [7]) came to 3.08e+07 M⁻¹ s⁻¹. Besides, the Kd in experiment [1] (setting [8]) is 219 nM. In addition, in experiment [1] (α3β4 nAChR), the “k′(NLC) retention capacity factor” value came to 8.98.
`COc1ccc2c(c1)[C@]13CCCC[C@@H]1[C@H](C2)N(C)CC3` [dextromethorphan]: in experiment [1] (DM vs LM, chromatographic experiments), the “difference in ΔG of the complexes” value is recorded as 0.3 kcal/mol. For the same molecule, in experiment [1] (chromatographic (NLC and van't Hoff)), the “K′” value is given as 61.30 (±0.27). For the same molecule, the Ka in experiment [1] (chromatographic (NLC)) is given as 23.40 (±0.36) μM^−1. In addition, the koff in experiment [1] (chromatographic (NLC), read-out: Koff) was 1.01 s⁻¹; in experiment [1] (setting [6]) it was 1.01 s⁻¹. The on-rate (kon) in experiment [1] (chromatographic (NLC), read-out: Kon) is 2.37e+07 M⁻¹ s⁻¹; in experiment [1] (setting [7]), 2.37e+07 M⁻¹ s⁻¹. Also, the Kd in experiment [1] (chromatographic (NLC), read-out: logKa (converted)) is 42.7 nM; in experiment [1] (setting [8]) it was 42.7 nM. Further, in experiment [1] (chromatographic (van't Hoff)), the “ΔG°” value is reported as −2.33 (±0.4) kcal mol^−1. For the same molecule, the “ΔH°” value in experiment [1] (chromatographic (van't Hoff)) is on record as −6.92 (±0.19) kcal mol^−1. Also, the “ΔS°” value in experiment [1] (chromatographic (van't Hoff)) was −15.70 (±0.7) cal mol^−1T^−1. For the same molecule, in experiment [1] (α3β4 nAChR), the “k′(NLC) retention capacity factor” value is listed as 61.30. The IC50 in experiment [2] (IC50, nicotine stimulated Rb+ efflux) came to 10100 nM; in experiment [2] (setting [4]), 10000 nM; in experiment [2] (setting [5]), 10100 nM.
In the case of `CNCCN1C(=O)[C@H](OC(C)=O)[C@H](c2ccc(OC)cc2)Sc2ccccc21` [MA], the “logk′” value in experiment [1] (α3β4 nAChR) worked out at 1.61. Moreover, the IC50 in experiment [2] (setting [9]) came out at 4200 nM.
`CCC(=O)C(CC(C)N(C)C)(c1ccccc1)c1ccccc1` (stereo not shown) [methadone]: the koff in experiment [1] (setting [6]) came out at 1.37 s⁻¹. Besides, the kon in experiment [1] (setting [7]) worked out at 1.59e+07 M⁻¹ s⁻¹. Also, in experiment [1] (setting [8]), the Kd is 87.1 nM. In addition, the “k′(NLC) retention capacity factor” value in experiment [1] (α3β4 nAChR) is on record as 44.45. In addition, in experiment [2] (setting [5]), the IC50 was 1900 nM.
Take `CC[n+]1c(-c2ccccc2)c2cc(N)ccc2c2ccc(N)cc21` [ethidium]: the koff in experiment [1] (setting [6]) came out at 0.18 s⁻¹. Further, in experiment [1] (setting [7]), the kon is 3.59e+07 M⁻¹ s⁻¹. In experiment [1] (setting [8]), the Kd is 5.01 nM. The “k′(NLC) retention capacity factor” value in experiment [1] (α3β4 nAChR) worked out at 191.82.
Take `COC(=O)C1=C(C)NC(C)=C(C(=O)OCCN(C)Cc2ccccc2)C1c1cccc([N+](=O)[O-])c1` (stereo not shown) [nicardapine]: the “logk′” value in experiment [1] (α3β4 nAChR) amounted to 2.33. The IC50 in experiment [2] (setting [9]) is 2500 nM.
On to `CNCCCC(C#N)(c1ccc(OC)c(OC)c1)C(C)C` [Compound D-617], for which, in experiment [1] (α3β4 nAChR, NLC), the “koff dissociation constant rate” value stood at 2.72 s⁻¹ and the “log K chromatographic equilibrium constant” value was 6.74 M^−1. Moreover, the “k′(NLC) retention capacity factor” value in experiment [1] (α3β4 nAChR) was determined as 22.22.
